Broadly, the EC50 is the concentration at which the effect is half-maximal. For orientation: CC50 means the concentration at which the toxic effect on the cells reaches its halfway point. Read a low CC50 as greater toxicity to the cells. Usually IC50 stands for the concentration that gives 50% inhibition.

The text below walks through data of ChEMBL document CHEMBL1134131, “Discovery of 2,3-diaryl-1,3-thiazolidin-4-ones as potent anti-HIV-1 agents” (Bioorg Med Chem Lett, 2001).

For assay [1], the system named is MT4. Put plainly: Anti-HIV activity to reduce […] cytopathic effect by 50% in MT-4 cells against HIV-1 IIIB. Format: functional, cell-based. The following applies: Homo sapiens. Background: Cytopathic effects are the visible damage that an infection or toxin causes in cultured cells.
Assay [2] concerns MT4. Put plainly: Anti-HIV activity to reduce […] cytopathic effect by 50% in MT-4 cells against HIV-1 IIIB; NA= not active. Format: functional, cell-based, Homo sapiens.
Assay [3] deals with MT4. Kind of assay: Cytotoxicity to reduce MT-4 cell viability by 50%. Format: functional. The following applies: Homo sapiens.
For assay [4], the system named is MT4. Kind of assay: Anti-HIV activity to reduce HIV-2-induced cytopathic effect by 50% in MT-4 cells against HIV-2 ROD. Format: functional, cell-based. The following applies: Homo sapiens.
The subject of assay [5] is MT4. Put plainly: Evaluated for the inhibition of replication of HIV-1 IIIB or HIV-2 (ROD) in MT-4 cells by using [3H]dGTP radiolabeled substrate. Format: functional, cell-based. The note with it: Homo sapiens.
Assay [6] has as its system MT4. Put plainly: Compound was evaluated for the inhibition of replication of HIV-1 IIIB or HIV-2 (ROD) in MT-4 cells by using [3H]dGTP radiolabeled substrate. Format: functional, cell-based. The following applies: Homo sapiens.
In assay [7] the test system is MT4. Put plainly: Evaluated for the inhibition of replication of HIV-1 IIIB or HIV-2 (ROD) in MT-4 cells by using [3H]-dGTP as the radiolabeled substrate. Format: functional, cell-based. The following applies: Homo sapiens.
The nature of assay [8]: Selectivity index ([…] ratio)of the compound. Format: functional.
Assay [9] concerns MT4. Kind of assay: Anti-HIV activity to reduce […] cytopathic effect by 50% in MT-4 cells against HIV-1 IIIB; NA=not active. Format: functional, cell-based, Homo sapiens.
Assay [10] relates to MT4. Kind of assay: Concentration required to reduce HIV-1-induced cytopathic effect by 50% in MT-4 cells against HIV-2 ROD. Format: functional, cell-based. The following applies: Homo sapiens.
The subject of assay [11] is MT4. Put plainly: Evaluated for cytotoxicity and the concentration required to reduce MT-4 cell viability by 50% was reported. The note with it: Homo sapiens. Format: functional.
Assay [12] relates to MT4. Put plainly: Concentration required to reduce HIV-1-induced cytopathic effect by 50% in MT-4 cells against HIV-1 IIIB. The note with it: Homo sapiens. Format: functional, cell-based.

Take `O=C1CSC(c2c(Cl)cccc2Cl)N1c1cccnc1` (stereo not drawn): the half-maximal effective concentration (EC50) in the assay with MT4 [1] is over 23 µM; in the assay with MT4 [2] it was “Not Active”. In the assay with MT4 [3], the midpoint of cytotoxicity, the CC50, lay at 23.4 µM.

For `Cc1ccnc(N2C(=O)CSC2c2c(Cl)cccc2Cl)c1` (stereo not drawn), the 50% effective concentration (EC50) with MT4 [1] is 0.147 µM; in the assay on MT4 [4] it was over 368 µM. The molecule also registered a cytotoxic concentration (CC50) in the assay on MT4 [3] of over 368 µM.

Consider `Cc1cccc(N2C(=O)CSC2c2c(Cl)cccc2Cl)n1` (stereo not drawn), for which the EC50 with MT4 [1] worked out at 0.044 µM; in the assay with MT4 [4] it was 285 µM. The molecule also registered a half-maximal inhibitory concentration (IC50) in the assay on MT4 [5] of 2.24 µM. The molecule also yielded a half-maximal cytotoxic concentration (CC50) in the assay on MT4 [3] of 285 µM.

In the case of `Cc1cccc(N2C(=O)CSC2c2c(F)cccc2F)n1` (stereo not drawn), half-maximal inhibition in the assay on MT4 [6] (IC50) required 2.9 µM. For the same molecule, the concentration giving a half-maximal response (EC50) in the assay with MT4 [1] was 0.082 µM; in the assay on MT4 [4] it was over 126 µM. The molecule also displayed a CC50 in the assay on MT4 [3] of 126 µM.

In the case of `O=C1CSC(c2c(Cl)cccc2Cl)N1c1ccccn1` (stereo not drawn), the 50% effective concentration (EC50) in the assay with MT4 [1] is 0.178 µM; in the assay on MT4 [4], over 38.5 µM. The molecule further displayed a CC50 in the assay on MT4 [3] of 38.5 µM.

Consider `O=C1CSC(c2c(F)cccc2F)N1c1cccnc1` (stereo not drawn), for which the concentration giving a half-maximal response (EC50) with MT4 [1] is 95.1 µM; with MT4 [4] it was over 427 µM. The molecule further gave a cytotoxic concentration (CC50) in the assay on MT4 [3] of over 427 µM.

In the assay on MT4 [1], `Clc1cccc(Cl)c1C1SCc2nc3ccccc3n21` (stereo not drawn) returned a concentration giving a half-maximal response (EC50) of 0.589 µM. The midpoint of cytotoxicity in the assay with MT4 [3], the CC50, lay at 9.43 µM.

Consider `O=C1CSC(c2c(Cl)cccc2Cl)N1c1ccccc1` (stereo not drawn), for which the concentration for a half-maximal effect (EC50) was 0.401 µM with MT4 [1] and over 39 µM in the assay on MT4 [4]. Also, it took 38.1 µM to reach half-maximal cytotoxicity in the assay on MT4 [3] (CC50).

Take `Fc1cccc(F)c1C1SCc2nc3ccccc3n21` (stereo not drawn) [THIAZOLOBENZIMIDAZOLE]: the response in the assay with MT4 [1] was half-maximal at 0.352 µM (EC50). The midpoint of inhibition with MT4 [7], the IC50, lay at 14.6 µM. The molecule further had a 50% cytotoxic concentration (CC50) with MT4 [3] of 19.2 µM.

With `Cc1ccnc(N2C(=O)CSC2c2c(F)cccc2F)c1` (stereo not drawn), the EC50 in the assay with MT4 [1] was 0.248 µM; in the assay on MT4 [4], over 242 µM. The Ratio in [8] was 976. In the assay with MT4 [5], this molecule showed an IC50 of 2.84 µM. In addition, the CC50 in the assay on MT4 [3] was found to be 242 µM.

Regarding `Cc1cccnc1N1C(=O)CSC1c1c(F)cccc1F` (stereo not drawn), the EC50 in the assay on MT4 [1] is 53.5 µM; in the assay on MT4 [4], over 270 µM. The molecule also returned a CC50 with MT4 [3] of over 319 µM.

For `Cc1ccc(N2C(=O)CSC2c2c(F)cccc2F)nc1` (stereo not drawn), the EC50 in the assay with MT4 [1] is 5.13 µM; in the assay on MT4 [4] it was over 171 µM. This molecule showed a CC50 in the assay on MT4 [3] of 202 µM.

Turning to `Cc1cccnc1N1C(=O)CSC1c1c(Cl)cccc1Cl` (stereo not drawn), the EC50 in the assay with MT4 [4] was over 31.5 µM; in the assay with MT4 [9], “Not Active”. In the assay with MT4 [3], this molecule returned a CC50 of 42.6 µM.

For `O=C1CSC(c2c(F)cccc2F)N1c1ccccc1` (stereo not drawn), the EC50 in the assay with MT4 [10] is over 429 µM; with MT4 [12], 2.3 µM. Moreover, the half-maximal cytotoxic concentration (CC50) in the assay on MT4 [11] is over 429 µM.

Regarding `O=C1CSC(c2c(F)cccc2F)N1c1ccccn1` (stereo not drawn), the EC50 in the assay on MT4 [1] was 0.855 µM; with MT4 [4], over 427 µM. In the assay on MT4 [3], the 50% cytotoxic concentration (CC50) is over 427 µM.
